Results reported in patent US9883669B2, “Maintenance medium for primate pluripotent stem cells” (priority 2014, dated 2018).

System: human iPS cells (253G1 lines and 201B7 lines)
Experiment: Observation of colony morphology of human iPS cells by light microscope
Assay type: cell-based
Conditions: xylose 3 g/L, 0, 24, 48, 72 hours, KSR
Method: During culture period, medium change was performed daily.
For a xylose medium for iPS cells in which xylose concentrations were 3 g/L and 15 g/L, the morphology of iPS cell colonies at 96 and 120 hours after culture was also observed with a light microscope (IX70, manufactured by Olympus Corporation).

O=C[C@H](O)[C@@H](O)[C@H](O)CO [D-xylose]
colony morphology and proliferation inhibitory effects, D-xylose versus L-xylose: no differences

O=C[C@@H](O)[C@H](O)[C@@H](O)CO [L-xylose]
colony morphology and proliferation inhibitory effects, D-xylose versus L-xylose: no differences
